Source: patent US8084461B2 (Dey, L.P., priority 2001, dated 2011)
Where a name gives a salt, the structure may show the parent alone.

Columns and labels:
patients with COPD [1] = assay: Double-blind, randomized, positive control trial: treatment-emergent adverse events (safety/tolerability); details: percent of patients; for (%) Patients with A (adverse events): any adverse event
Procedure: (§1) To evaluate the efficacy and safety of the inhalation solution of the present invention, a double-blind, randomized, positive control trial was performed.
(§2) All study medications were administered 4 times per day (ideally every 6 hours) by inhalation using a PARI LC PLUS™ nebulizer and PARI PRONEB® compressor. Concomitant use of bronchodilators was restricted during the trial. Oral and inhaled steroic use was permitted throughout the trial, provided that dosing remained constant.

patients with COPD [2] = assay: Double-blind, randomized, positive control trial: FEV1 response (efficacy); assay type: in vivo, human; details: Crossover phase, nebulized 4 times per day
Procedure: as §1, §2

Row | Compound | Bronchitis (RESPIRATORY), % (patients with COPD [1]) | Cramps leg (MUSCULO-SKELETAL), % (patients with COPD [1]) | Diarrhea (DIGESTIVE), % (patients with COPD [1]) | Dyspepsia (DIGESTIVE), % (patients with COPD [1]) | Infection urinary tract (UROGENITAL), % (patients with COPD [1]) | Lung Disease (RESPIRATORY), % (patients with COPD [1]) | Nausea (DIGESTIVE), % (patients with COPD [1]) | Pain (BODY AS A WHOLE), % (patients with COPD [1]) | Pain chest (BODY AS A WHOLE), % (patients with COPD [1]) | Pharyngitis (RESPIRATORY), % (patients with COPD [1]) | Pneumonia (RESPIRATORY), % (patients with COPD [1]) | (%) Patients with A (adverse events) (patients with COPD [1]) | Peak FEV1 mean (change from pre-dose to peak FEV1 within 3 hours after dosing) (patients with COPD [2]; Combination vs. Albuterol comparison) [L] | Peak FEV1 mean (change from pre-dose to peak FEV1 within 3 hours after dosing) (patients with COPD [2]; Combination vs. Ipratropium comparison) [L]
1 | CC(C)(C)NCC(O)c1ccc(O)c(CO)c1 (stereo not drawn) [Albuterol, α^1-[(tert-butylamino)methyl]-4-hydroxy-m-xylene-α,α′-diol sulfate (2:1)(salt)] | (1.4) % | (1.1) % | (0.7) % | (0.9) % | (0.4) % | (4.7) % | (0.9) % | (1.1) % | (1.4) % | (3.5) % | (0.9) % | (43.0) % | 0.313 | –
2 | CC(C)[N+]1(C)C2CCC1CC(OC(=O)C(CO)c1ccccc1)C2 (racemic) [Ipratropium, 8-azoniabicyclo [3.2.1]-octane, 3-(3, hydroxyl-1-oxo-2-phenylpropoxy)-8methyl-8-(1-methylethyl)-bromide, monohydrate, (endo, syn)-, (±)-] | (1.7) % | (0.8) % | (1.2) % | (1.1) % | (1.2) % | (4.5) % | (0.8) % | (0.5) % | (1.9) % | (3.6) % | (1.1) % | (43.6) % | – | 0.282
